The values below come from patent US8349885B2, “Indole and indazole derivatives having a cell-, tissue- and organ-preserving effect” (LG Life Sciences Ltd., priority 2008, dated 2013).

Data set [1] deals with primary hepatocytes isolated from rats. Put plainly: Hepatocyte-protecting effect: viability of isolated primary hepatocytes in culture (WST-1). The note with it: rat primary hepatocytes; treated at 1 or 10 μM; WST-1, optical density at 440 nm. In kind it is cell-based. The procedure:
If cells are isolated from in vivo environment and their culture or preservation in vitro is begun, it would act as a stress to cells, and the apoptosis mechanism would begin to work. For preservation of organs or tissues, it is necessary to protect them from such a primary stress.
In order to verify this, primary hepatocytes isolated from rats were treated with the compounds of the working examples to observe how well the compounds can protect them from a primary stress. Primary hepatocytes were isolated using the Seglen PO method (Experimental Cell Research 74 (1972) pp. 450-454). Briefly, hepatocytes were isolated according to the two-step collagenase perfusion method and then centrifuged using percoll gradient (Kreamer BL etc., In Vitro Cellular & Developmental Biology 22 (1986) pp. 201-211) at low speed (500 rpm) for 10 minutes to remove dead cells. Viability of hepatocytes was maintained at 90% or more. Cells were suspended in HepatoZYME media (Gibco BRL) and counted. 1.5×10^4 cells of 100 μl were put into a 96-well plate (BD biocoat) coated with collagen and attached to the bottom for 3-4 hours. […] After 24, 72 or 144 hours, cell viability was measured to evaluate a hepatocyte-protecting effect.
Cell viability was measured by the optical density at 440 nm according to the WST-1 method (MK-400, Takeda). […]
(In general: Tetrazolium assays rely on reduction of a dye to a coloured formazan, in cell work by metabolically active cells.)

Data set [2] has as its system primary cultured hepatocytes. Put plainly: Cell-protecting effect against cold shock in primary cultured hepatocytes (WST-1). In kind it is cell-based. The note with it: Rattus norvegicus, Hepatocyte, 37° C. for 1 hour, 4° C. for 22 hours, then 37° C., cell viability by WST-1. The procedure: In order to reproduce a condition for preservation prior to organ transplantation, primary cultured hepatocytes were prepared according to Experimental Example 1 and treated with the compounds of the working examples at 9 different concentrations that had been prepared by 3-fold serial dilution method using a starting concentration of 25 μM. The mixture was cultured at 37° C. for 1 hour, stored at 4° C. for 22 hours, and then transferred into an incubator at 37° C. and cultured therein. Cell viability was measured by the optical density at 440 nm according to the WST-1 method (MK-400, Takeda), and IC50 (unit: μM) was obtained using prism software (see Table 1).

The subject of data set [3] is human embryonic lung cell line (LB-HEL). Put plainly: Cell-protecting effect against cold shock in LB-HEL cells (WST-1). In kind it is cell-based. The note with it: cold shock at 4° C. for 24 hours, then 37° C., cell viability by WST-1. Here is the method:
The same results as above were also obtained in other types of cells such as human embryonic lung cell line (LB-HEL) as well as hepatocytes (see FIG. 2 and Table 2). More specifically, LB-HEL cells were plated at 1.5×10^6 cells/well using DMEM medium (Gibco BRL) and treated with DMSO, nec-1, IM-54 or the compounds of Examples 126, 127, 137 and 138 at indicated concentrations. After storage at 4° C. for 24 hours, the mixture was transferred into an incubator at 37° C. and cultured therein. In order to verify recovery capacity at 37° C., cell viability after 24 hours post-transfer was measured by the optical density at 440 nm according to the WST-1 method (MK-400, Takeda) and compared with cell viability prior to cold shock (FIG. 2).

Data set [4] has as its system rat-isolated perfusion liver. Put plainly: Protecting effect against cold ischemia/warm reperfusion injury in rat-isolated perfusion liver model. The settings on record: 30 μM in HTK solution, 24-hour cold preservation at 4° C. Here is the method:
In order to verify an organ preservation effect, rat-isolated perfusion liver model was used to evaluate a protecting effect of the compounds of the working examples against cold preservation injury. A white rat was anesthetized by intraperitoneal injection of sodium pentobarbital (50 mg/kg) and administered with heparin (500 U/kg) by intravenous injection to prevent blood coagulation. After incising the abdominal median line, in order to measure bile output, polyethylene tube-10 was inserted into the bile duct, and the coronary vein was tied. Polyethylene tube-190 was inserted into the hepatic portal vein, and a perfusate, Krebs-Henseleit bicarbonate buffer (KHBB) (at pH 7.4 at 37° C.) was perfused at a rate of 4 mL/min/g. […] During the perfusion, a mixed gas (O2 95% and CO2 5%) was continuously injected to KHBB to supply oxygen. […]
In order to observe a protecting effect against ischemia and reperfusion injury, bile output and perfusate's LDH activity were measured. KHBB perfusate released from liver at 5, 10, 20, 30, 40, 50, 60, 70 and 80 minutes after reperfusion was collected, and LDH activity in the perfusate was measured using a biochemical automatic analyzer, Hitachi 7150 (FIG. 4). Bile secreted through the polyethylene tube which had been inserted into the bile duct at 0˜20, 20˜40, 40˜60 and 60˜80 minutes after reperfusion was collected, and bile output was measured (FIG. 5).

Regarding `O=C(O)C[C@H]1CSC(c2cc3cc(Oc4ccccc4)cc(NC4CCCC4)c3[nH]2)=N1` [Example 21, [(S)-2-(7-cyclopentylamino-5-phenoxy-1H-indol-2-yl)-4,5-dihydro-thiazole-4-yl]-acetic acid], in data set [1], the “viability after 144 hours, compared with viability after 24 hours” value is recorded as not below 80%. Besides, the IC50 (as a rule, the concentration at which inhibition is half-maximal) in data set [2] is less than 120 nM.
With `O=S1(=O)CCN(Cc2cc(NC3CCOCC3)c3[nH]c(-c4ccccc4)cc3c2)CC1` [Example 126, [5-(1,1-dioxo-thiomorpolin-4-ylmethyl)-2-phenyl-1H-indol-7-yl]-(tetrahydropyran-4-yl)-amine], the values for the IC50 in data set [2] and in data set [3] were 248 nM and less than 100 nM, respectively. Also, in data set [4] (80 minutes of reperfusion), the “total amount of bile output” value was 0.070±0.006 ml/g liver. For the same compound, the inhibition (commonly how much of the control response was suppressed) at 30 µM in data set [4] (Rattus norvegicus, until 50 minutes of reperfusion, read-out: inhibition of LDH activity in the perfusate, compared with the HTK group) was in the range of 50 to 70%.
As to `C[C@H](NC(=O)C(=O)Nc1ccccc1C(C)(C)C)C(=O)N[C@@H](CC(=O)O)C(=O)COc1c(F)c(F)cc(F)c1F` [IDN6556, reference compound], in data set [1], the “viability after 72 hours, compared with viability after 24 hours” value was “about 50%”.
